The text below walks through data of patent publication US20260325645A1, “IMPROVEMENTS IN OR RELATING TO COMPOSITIONS FOR IMPROVEMENT OF PHOTODYNAMIC THERAPY” (SYDERMA LTD, priority 2023, published 2026).

One series concerns ATR. The settings on record: reference 10; cited from earlier work.
For a further series, the system named is ATM. The settings on record: reference 10; cited from earlier work.
For series [1] the following is noted: references 11, 12, 13; cited from earlier work.
In the next series the test system is active lesions (acne). Nature of the series: Combined analysis of acne lesion clearance, Examples 3, 6 and 7 (FIG. 6). The format is in vivo, human. To be noted: pre- and final post-treatment data of Examples 3, 6 and 7; P 0.005 paired, two-tailed T-test.
For series [2] the following is noted: clinical trials; reference 17; cited from earlier work.
The subject of the next series is acne. The experiment in a line: Theobromine treatment of acne (comparative Examples 8-11). Format: in vivo, human. The settings on record: 0.5% theobromine topical; for improvement of acne: data not shown. As to the method: A patient presented with acne bilaterally on their face. The acne presented as active inflammatory reaction or as visible white liquid-filled extrusions. For the purposes of the test, the affected area was split into two sections, left cheek and right cheek. The right face was treated with 0.5% theobromine topical preparation solution. The theobromine solution was prepared in 25% ethanol and 50% glycerol, adjusted to pH 8 via 100 mM sodium hydrogen carbonate solution.
For the purposes of the treatment, theobromine solution was applied to the right side of the face in a thin film using 100-200 μL of the solution (2-4 drops). The solution was left to dry and penetrate the skin for 20 minutes, after which both sides of the face were covered in the photosensitizer cream as per manufacturer's instructions, using 1-1.5 g of cream. The cream was left to penetrate the skin for 5-10 minutes and the patient was asked not to wash their face for 2 hours.
The patient was assessed first prior to treatment and subsequently 1 month after for the success and quantification of active acne on each side of the face by a qualified dermatologist.
A patient presented with acne bilaterally on their face. The acne presented as active inflammatory reaction or as visible white liquid-filled extrusions. For the purposes of the test, the affected area was split into two sections, left cheek and right cheek. The left face was treated with 0.5% theobromine topical preparation solution. The theobromine solution was prepared in 25% ethanol and 50% glycerol, adjusted to pH 8 via 100 mM sodium hydrogen carbonate solution.
For the purposes of the treatment, theobromine solution was applied to the left side of the face in a thin film using 100-200 μL of the solution (2-4 drops). […]
The patient was assessed first prior to treatment and subsequently 6 weeks after for the success and quantification of active acne on each side of the face by a qualified dermatologist.

A further series deals with PARP. The settings on record: only compound with activity on PARP in addition to ATM and ATR; cited from earlier work.
Another series relates to DNA repair. The settings on record: in vitro, through modulating the activity of ATM/ATR kinases, as well as PARP; references 10,11,12,14; cited from earlier work.
For the next series, the system named is actinic keratoses. The experiment in a line: Theobromine alone on actinic keratoses (comparative Examples 4 and 5). Format: in vivo, human. To be noted: 0.5% theobromine solution applied once, 1 month later. As to the method: A person presented with actinic keratoses on their scalp. Three actinic keratoses were selected by a qualified dermatologist and treated once with 0.5% theobromine topical preparation solution. The theobromine solution was prepared in 25% ethanol and 50% glycerol, adjusted to pH 8 via 100 mM sodium hydrogen carbonate solution. For treatment, theobromine solution was applied to the selected lesions of the scalp in a thin aqueous film using 50 μL of the solution per lesion (1 drop). The solution was left to dry and permeate the skin for 20 minutes. The position of the lesions was marked with a water-soluble marker and the lesions were photographed. The patient was reviewed 1 month later by a qualified dermatologist and the lesions were compared with the baseline photographs.
A person presented with actinic keratoses on their face and scalp. An actinic keratosis was selected by a qualified dermatologist on their right cheek and treated once with 0.5% theobromine topical preparation solution. The theobromine solution was prepared in 25% ethanol and 50% glycerol, adjusted to pH 8 via 100 mM sodium hydrogen carbonate solution. For treatment, theobromine solution was applied to the selected lesions of the […] in a thin aqueous film using 50 μL of the solution per lesion (1 drop). The solution was left to dry and permeate the skin for 20 minutes. […]

“Also recorded” adds a separate entry of the source.

With `Cn1c(=O)c2c(ncn2C)n(C)c1=O` [caffeine], in the series with ATR, the ATR inhibition result is “inhibitors of both ATM and ATR”. Besides, in the series on ATM, the ATM inhibition entry was “inhibitors of both ATM and ATR”. The radiosensitising activity result in [1] is “radiosensitisers”.

Consider `COC(=O)CCC(=O)CN` [methyl aminolevulinate], for which, in the series on active lesions (acne), the “average clearance of active lesions” value was determined as 32%.

`CC(=O)CCCCn1c(=O)c2c(ncn2C)n(C)c1=O` [pentoxyphilline]: in series [2], the “clinical benefit as radiosensitiser” value was “failed to provide consistent benefits”. The radiosensitising activity entry in series [1] was “radiosensitisers”.

In the case of `Cn1cnc2c1c(=O)[nH]c(=O)n2C` [theobromine], the patient-reported adverse effects result in the series with acne (1 month (Examples 8, 9, 10) or 6 weeks (Example 11)) is recorded as “No patient-reported adverse effects”. Moreover, the improvement of acne result in the series with acne (1 month after (Examples 8, 9, 10)) is on record as “did not improve acne”; with acne (6 weeks after (Example 11)) it was “did not improve acne”. In addition, in the series on ATR, the ATR inhibition entry is “inhibitors of both ATM and ATR”. The ATM inhibition result in the series with ATM was “inhibitors of both ATM and ATR”. The PARP inhibitory activity result in the series with PARP is on record as “measurable PARP inhibitory activity”. For the same molecule, in series [1], the radiosensitising activity result is listed as “radiosensitisers”. Further, the “inhibition of DNA repair” value with DNA repair is “inhibit DNA repair in vitro”. The “improvement of actinic keratosis” value in the series on actinic keratoses (no photosensitizer) is listed as “No improvement of actinic keratoses was observed; also recorded: No improvement of actinic keratosis was observed”. In addition, the redness or soreness entry in the series with actinic keratoses was “No redness or soreness were observed”.

Turning to `Cn1c(=O)c2[nH]cnc2n(C)c1=O` [theophylline], in series [1], the radiosensitising activity entry was “radiosensitisers”.
